In BigSolDB 2.1:

NCC1(CC(=O)O)CCCCC1
solubility (mole fraction)
Conditions	283.15 K	288.15 K	293.15 K	298.15 K	303.15 K	308.15 K	313.15 K	318.15 K	323.15 K
in ethanol	0.00134	0.00153	0.0017	0.00187	0.00224	0.00243	0.00267	0.003	0.00329
in methanol	0.00718	0.00795	0.00878	0.00943	0.0107	0.0117	0.0127	0.014	0.016

NCC1(CC(=O)O)CCCCC1.O
in water
Conditions	solubility (mole fraction)
283.15 K	0.0093
288.15 K	0.0106
293.15 K	0.0116
298.15 K	0.0124
303.15 K	0.0137
308.15 K	0.0152
313.15 K	0.0168
318.15 K	0.0189
323.15 K	0.0222
